test system: test plant species; assay: Post-emergent herbicidal activity test (greenhouse, foliar spray, visual growth reduction); format: in vivo; conditions: post-emergence, 336 h, ECHCG: barnyardgrass (Echinochloa crus-galli), 140 g ai/ha, 14 days after application, read-out: Visual Growth Reduction (%) 14 Days After Application, ECHCG
Procedure, shortened: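 Scoring used a 0 to 100 percent visual scale of growth reduction against solvent-treated controls, read 14 d after spraying. Applications went onto plants at first or second true leaf stage, 187 L/ha, with crop oil concentrate and X-77 surfactant in the carrier. Post-treatment watering was by subirrigation to avoid wash-off.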

Compared with `O=C(O)c1nc(-c2cc(F)c3c(c2)OC(F)(F)O3)ccc1Cl` [F368, 3-Chloro-6-(2,2,7-trifluorobenzo[d][1,3]dioxol-5-yl)picolinic acid], `O=C(O)c1nc(-c2nc(Cl)c(C(F)(F)F)cc2Cl)ccc1Cl` [F225, 3′,5,6′-Trichloro-5'-(trifluoromethyl)-[2,2′-bipyridine]-6-carboxylic acid] is higher in pest or weed control at 140 g/ha: 0 to 29% for the first, 95 to 100% for the second.

`COC(=O)c1nc(-c2ccc(SC)cc2)c(F)cc1Cl` [F248, Methyl 3-chloro-5-fluoro-6-(4-(methylthio)phenyl) picolinate] showed a pest or weed control at 140 g/ha of 0 to 29%.

same assay, conditions: post-emergence, 336 h, IPOHE: ivy-leaf morning glory (Ipomoea hederacea), 140 g ai/ha, 14 days after application, read-out: Visual Growth Reduction (%) 14 Days After Application, IPOHE

`O=C(O)c1nc(-c2cc(F)c3c(c2)OC(F)(F)O3)ccc1Cl` [F368, 3-Chloro-6-(2,2,7-trifluorobenzo[d][1,3]dioxol-5-yl)picolinic acid] and `O=C(O)c1nc(-c2nc(Cl)c(C(F)(F)F)cc2Cl)ccc1Cl` [F225, 3′,5,6′-Trichloro-5'-(trifluoromethyl)-[2,2′-bipyridine]-6-carboxylic acid] fall in the same range of pest or weed control at 140 g/ha: 95 to 100% for the first, 95 to 100% for the second.

`COC(=O)c1nc(-c2ccc(SC)cc2)c(F)cc1Cl` [F248, Methyl 3-chloro-5-fluoro-6-(4-(methylthio)phenyl) picolinate] was tested, and the pest or weed control at 140 g/ha was 30 to 44%.

same assay, conditions: post-emergence, 336 h, KCHSC: kochia (Bassia scoparia), 140 g ai/ha, 14 days after application, read-out: Visual Growth Reduction (%) 14 Days After Application, KCHSC

Compared with `O=C(O)c1nc(-c2cc(F)c3c(c2)OC(F)(F)O3)ccc1Cl` [F368, 3-Chloro-6-(2,2,7-trifluorobenzo[d][1,3]dioxol-5-yl)picolinic acid], `O=C(O)c1nc(-c2nc(Cl)c(C(F)(F)F)cc2Cl)ccc1Cl` [F225, 3′,5,6′-Trichloro-5'-(trifluoromethyl)-[2,2′-bipyridine]-6-carboxylic acid] is higher in pest or weed control at 140 g/ha: 0 to 29% for the first, 95 to 100% for the second.

Work on `COC(=O)c1nc(-c2ccc(SC)cc2)c(F)cc1Cl` [F248, Methyl 3-chloro-5-fluoro-6-(4-(methylthio)phenyl) picolinate] yielded a pest or weed control at 140 g/ha of 0 to 29%.

same assay, conditions: post-emergence, 336 h, ORYSA: rice (Oryza sativa), 140 g ai/ha, 14 days after application, read-out: Visual Growth Reduction (%) 14 Days After Application, ORYSA

First: O=C(O)c1nc(-c2cc(F)c3c(c2)OC(F)(F)O3)ccc1Cl [F368, 3-Chloro-6-(2,2,7-trifluorobenzo[d][1,3]dioxol-5-yl)picolinic acid]
Second: O=C(O)c1nc(-c2nc(Cl)c(C(F)(F)F)cc2Cl)ccc1Cl [F225, 3′,5,6′-Trichloro-5'-(trifluoromethyl)-[2,2′-bipyridine]-6-carboxylic acid]
The pest or weed control at 140 g/ha of the first is lower: 0 to 29% for the first, 85 to 94% for the second.

For `COC(=O)c1nc(-c2ccc(SC)cc2)c(F)cc1Cl` [F248, Methyl 3-chloro-5-fluoro-6-(4-(methylthio)phenyl) picolinate], the pest or weed control at 140 g/ha was 0 to 29%.

same assay, conditions: post-emergence, 336 h, SETFA: giant foxtail (Setaria faberi), 140 g ai/ha, 14 days after application, read-out: Visual Growth Reduction (%) 14 Days After Application, SETFA

First: O=C(O)c1nc(-c2cc(F)c3c(c2)OC(F)(F)O3)ccc1Cl [F368, 3-Chloro-6-(2,2,7-trifluorobenzo[d][1,3]dioxol-5-yl)picolinic acid]
Second: O=C(O)c1nc(-c2nc(Cl)c(C(F)(F)F)cc2Cl)ccc1Cl [F225, 3′,5,6′-Trichloro-5'-(trifluoromethyl)-[2,2′-bipyridine]-6-carboxylic acid]
The pest or weed control at 140 g/ha of the first is lower: 45 to 59% for the first, 95 to 100% for the second.

Work on `COC(=O)c1nc(-c2ccc(SC)cc2)c(F)cc1Cl` [F248, Methyl 3-chloro-5-fluoro-6-(4-(methylthio)phenyl) picolinate] yielded a pest or weed control at 140 g/ha of 0 to 29%.

same assay, conditions: post-emergence, 336 h, SORVU: grain sorghum (Sorghum vulgare), 140 g ai/ha, 14 days after application, read-out: Visual Growth Reduction (%) 14 Days After Application, SORVU

First: O=C(O)c1nc(-c2cc(F)c3c(c2)OC(F)(F)O3)ccc1Cl [F368, 3-Chloro-6-(2,2,7-trifluorobenzo[d][1,3]dioxol-5-yl)picolinic acid]
Second: O=C(O)c1nc(-c2nc(Cl)c(C(F)(F)F)cc2Cl)ccc1Cl [F225, 3′,5,6′-Trichloro-5'-(trifluoromethyl)-[2,2′-bipyridine]-6-carboxylic acid]
The pest or weed control at 140 g/ha of the first is lower: 75 to 84% for the first, 95 to 100% for the second.

For `COC(=O)c1nc(-c2ccc(SC)cc2)c(F)cc1Cl` [F248, Methyl 3-chloro-5-fluoro-6-(4-(methylthio)phenyl) picolinate], the pest or weed control at 140 g/ha was 0 to 29%.

same assay, conditions: post-emergence, 336 h, STEME: common chickweed (Stellaria media), 140 g ai/ha, 14 days after application, read-out: Visual Growth Reduction (%) 14 Days After Application, STEME

First: O=C(O)c1nc(-c2cc(F)c3c(c2)OC(F)(F)O3)ccc1Cl [F368, 3-Chloro-6-(2,2,7-trifluorobenzo[d][1,3]dioxol-5-yl)picolinic acid]
Second: O=C(O)c1nc(-c2nc(Cl)c(C(F)(F)F)cc2Cl)ccc1Cl [F225, 3′,5,6′-Trichloro-5'-(trifluoromethyl)-[2,2′-bipyridine]-6-carboxylic acid]
The pest or weed control at 140 g/ha of the first is lower: 0 to 29% for the first, 45 to 59% for the second.

Molecule `COC(=O)c1nc(-c2ccc(SC)cc2)c(F)cc1Cl` [F248, Methyl 3-chloro-5-fluoro-6-(4-(methylthio)phenyl) picolinate] has a pest or weed control at 140 g/ha of 0 to 29%.

same assay, conditions: post-emergence, 336 h, TRZAS: wheat, spring (Triticum aestivum), 140 g ai/ha, 14 days after application, read-out: Visual Growth Reduction (%) 14 Days After Application, TRZAS

First: O=C(O)c1nc(-c2cc(F)c3c(c2)OC(F)(F)O3)ccc1Cl [F368, 3-Chloro-6-(2,2,7-trifluorobenzo[d][1,3]dioxol-5-yl)picolinic acid]
Second: O=C(O)c1nc(-c2nc(Cl)c(C(F)(F)F)cc2Cl)ccc1Cl [F225, 3′,5,6′-Trichloro-5'-(trifluoromethyl)-[2,2′-bipyridine]-6-carboxylic acid]
The pest or weed control at 140 g/ha of the first is lower: 0 to 29% for the first, 75 to 84% for the second.

Work on `COC(=O)c1nc(-c2ccc(SC)cc2)c(F)cc1Cl` [F248, Methyl 3-chloro-5-fluoro-6-(4-(methylthio)phenyl) picolinate] yielded a pest or weed control at 140 g/ha of 0 to 29%.

same assay, conditions: post-emergence, 336 h, blackgrass (Alopecurus myosuroides), 14 Days After Application, 140 g ai/ha, read-out: Visual Growth Reduction (%) ALOMY

Compared with `O=C(O)c1nc(-c2cc(F)c3c(c2)OC(F)(F)O3)ccc1Cl` [F368, 3-Chloro-6-(2,2,7-trifluorobenzo[d][1,3]dioxol-5-yl)picolinic acid], `O=C(O)c1nc(-c2nc(Cl)c(C(F)(F)F)cc2Cl)ccc1Cl` [F225, 3′,5,6′-Trichloro-5'-(trifluoromethyl)-[2,2′-bipyridine]-6-carboxylic acid] is higher in pest or weed control at 140 g/ha: 0 to 29% for the first, 45 to 59% for the second.

With `COC(=O)c1nc(-c2ccc(SC)cc2)c(F)cc1Cl` [F248, Methyl 3-chloro-5-fluoro-6-(4-(methylthio)phenyl) picolinate] the pest or weed control at 140 g/ha was 0 to 29%.

same assay, conditions: post-emergence, 336 h, canada thistle (Cirsium arvense), 14 Days After Application, 140 g ai/ha, read-out: Visual Growth Reduction (%) CIRAR

Compared with `O=C(O)c1nc(-c2cc(F)c3c(c2)OC(F)(F)O3)ccc1Cl` [F368, 3-Chloro-6-(2,2,7-trifluorobenzo[d][1,3]dioxol-5-yl)picolinic acid], `O=C(O)c1nc(-c2nc(Cl)c(C(F)(F)F)cc2Cl)ccc1Cl` [F225, 3′,5,6′-Trichloro-5'-(trifluoromethyl)-[2,2′-bipyridine]-6-carboxylic acid] is higher in pest or weed control at 140 g/ha: 0 to 29% for the first, 85 to 94% for the second.

Molecule `COC(=O)c1nc(-c2ccc(SC)cc2)c(F)cc1Cl` [F248, Methyl 3-chloro-5-fluoro-6-(4-(methylthio)phenyl) picolinate] has a pest or weed control at 140 g/ha of 0 to 29%.

same assay, conditions: post-emergence, 336 h, crabgrass (Digitaria sanguinalis), 14 Days After Application, 140 g ai/ha, read-out: Visual Growth Reduction (%) DIGSA

First: O=C(O)c1nc(-c2cc(F)c3c(c2)OC(F)(F)O3)ccc1Cl [F368, 3-Chloro-6-(2,2,7-trifluorobenzo[d][1,3]dioxol-5-yl)picolinic acid]
Second: O=C(O)c1nc(-c2nc(Cl)c(C(F)(F)F)cc2Cl)ccc1Cl [F225, 3′,5,6′-Trichloro-5'-(trifluoromethyl)-[2,2′-bipyridine]-6-carboxylic acid]
The pest or weed control at 140 g/ha of the first is lower: 75 to 84% for the first, 95 to 100% for the second.

For `COC(=O)c1nc(-c2ccc(SC)cc2)c(F)cc1Cl` [F248, Methyl 3-chloro-5-fluoro-6-(4-(methylthio)phenyl) picolinate], the pest or weed control at 140 g/ha was 60 to 74%.

same assay, conditions: post-emergence, 336 h, lambsquarters (Chenopodium album), 14 Days After Application, 140 g ai/ha, read-out: Visual Growth Reduction (%) CHEAL

Compared with `O=C(O)c1nc(-c2cc(F)c3c(c2)OC(F)(F)O3)ccc1Cl` [F368, 3-Chloro-6-(2,2,7-trifluorobenzo[d][1,3]dioxol-5-yl)picolinic acid], `O=C(O)c1nc(-c2nc(Cl)c(C(F)(F)F)cc2Cl)ccc1Cl` [F225, 3′,5,6′-Trichloro-5'-(trifluoromethyl)-[2,2′-bipyridine]-6-carboxylic acid] is higher in pest or weed control at 140 g/ha: 0 to 29% for the first, 95 to 100% for the second.

For `COC(=O)c1nc(-c2ccc(SC)cc2)c(F)cc1Cl` [F248, Methyl 3-chloro-5-fluoro-6-(4-(methylthio)phenyl) picolinate], the pest or weed control at 140 g/ha was 0 to 29%.

same assay, conditions: post-emergence, 336 h, redroot pigweed (Amaranthus retroflexus), 14 Days After Application, 140 g ai/ha, read-out: Visual Growth Reduction (%) AMARE

First: O=C(O)c1nc(-c2cc(F)c3c(c2)OC(F)(F)O3)ccc1Cl [F368, 3-Chloro-6-(2,2,7-trifluorobenzo[d][1,3]dioxol-5-yl)picolinic acid]
Second: O=C(O)c1nc(-c2nc(Cl)c(C(F)(F)F)cc2Cl)ccc1Cl [F225, 3′,5,6′-Trichloro-5'-(trifluoromethyl)-[2,2′-bipyridine]-6-carboxylic acid]
The pest or weed control at 140 g/ha of the first is lower: 0 to 29% for the first, 95 to 100% for the second.

With `COC(=O)c1nc(-c2ccc(SC)cc2)c(F)cc1Cl` [F248, Methyl 3-chloro-5-fluoro-6-(4-(methylthio)phenyl) picolinate] the pest or weed control at 140 g/ha was 0 to 29%.

same assay, conditions: post-emergence, 336 h, wild oat (Avena fatua), 14 Days After Application, 140 g ai/ha, read-out: Visual Growth Reduction (%) AVEFA

First: O=C(O)c1nc(-c2cc(F)c3c(c2)OC(F)(F)O3)ccc1Cl [F368, 3-Chloro-6-(2,2,7-trifluorobenzo[d][1,3]dioxol-5-yl)picolinic acid]
Second: O=C(O)c1nc(-c2nc(Cl)c(C(F)(F)F)cc2Cl)ccc1Cl [F225, 3′,5,6′-Trichloro-5'-(trifluoromethyl)-[2,2′-bipyridine]-6-carboxylic acid]
The pest or weed control at 140 g/ha of the first is lower: 0 to 29% for the first, 95 to 100% for the second.

`COC(=O)c1nc(-c2ccc(SC)cc2)c(F)cc1Cl` [F248, Methyl 3-chloro-5-fluoro-6-(4-(methylthio)phenyl) picolinate] was tested, and the pest or weed control at 140 g/ha was 0 to 29%.

same assay, conditions: post-emergence, 336 h, yellow nutsedge (Cyperus esculentus), 14 Days After Application, 140 g ai/ha, read-out: Visual Growth Reduction (%) CYPES

Compared with `O=C(O)c1nc(-c2cc(F)c3c(c2)OC(F)(F)O3)ccc1Cl` [F368, 3-Chloro-6-(2,2,7-trifluorobenzo[d][1,3]dioxol-5-yl)picolinic acid], `O=C(O)c1nc(-c2nc(Cl)c(C(F)(F)F)cc2Cl)ccc1Cl` [F225, 3′,5,6′-Trichloro-5'-(trifluoromethyl)-[2,2′-bipyridine]-6-carboxylic acid] is higher in pest or weed control at 140 g/ha: 0 to 29% for the first, 45 to 59% for the second.

`COC(=O)c1nc(-c2ccc(SC)cc2)c(F)cc1Cl` [F248, Methyl 3-chloro-5-fluoro-6-(4-(methylthio)phenyl) picolinate] gave a pest or weed control at 140 g/ha of 0 to 29%.
